Data published in patent publication US4888049A, “Synergist for biocide” (Kao Corporation, priority 1986, dated 1989).

Test system: Crabgrasses
Test: Herbicidal effect of Karmex D (DCMU) herbicide with or without compound 6 (Example 6)
Type: in vivo, crabgrass
Conditions: compound 6, where added, 2000 ppm in the diluted solution
Method: Crabgrasses (30 crabgrasses per pot) which were in a trifoliate stage were treated with the above herbicide in a predetermined concentration. 7 days after the treatment, the weight of survival at the aerical part and the percentage herbicidal effect relative to the untreated section (%) were calculated. 50% herbicidal concentration was also determined.
The above-mentioned preparation was diluted with water to have a predetermined concentration.

CCCCCCCCC(CCCCCC)C[N+](C)(C)Cc1ccc(Cl)cc1 (centres unmarked) [compound 6]
herbicidal effect (%) (active ingredient (DCMU) concn. 125 ppm): 39% | herbicidal effect (%) (active ingredient (DCMU) concn. 250 ppm): 55% | herbicidal effect (%) (active ingredient (DCMU) concn. 500 ppm): 77% | herbicidal effect (%) (active ingredient (DCMU) concn. 1000 ppm): 91% | herbicidal effect (%) (active ingredient (DCMU) concn. 2000 ppm): 100%
